The results in this text go back to publication PMC5207512, “Inhibition of Helicobacter pylori and Its Associated Urease by Palmatine: Investigation on the Potential Mechanism” (PLoS ONE, 2017).

The target in assay [1] is T1, H. pylori urease (HPU) (Helicobacter pylori, UniProt P69996).
T1 construct: HPU was prepared as previously described; made in house
Description: biochemical. Conditions: read-out: Residual urease activity (percent of control), Fig 5A HPU, thiols 1.25 mM, Pal 0.5 mM, 20+20 min. The class given is biochemical. The procedure:
(§1) The reaction mixture consisted of 0.25 mg/mL HPU or JBU, 0.5 mM Pal (for both HPU and JBU), and 1.25 mM thiols (DTT, GSH, or L-cys) in 20 mM HEPES buffer (pH 7.5). The components of the incubation mixture were mixed according to three procedures: (1) Urease was added to the mixture after a 20-min co-incubation of Pal with thiol. (2) Pal was added to the mixture after a 20-min co-incubation of urease with thiol. (3) Thiols were added to the mixture after a 20-min co-incubation of urease with Pal. The incubation mixture containing all components was incubated for further 20 min and the activity of urease was determined. The experiments were triply performed.

The target of assay [2] is T2, jack bean urease (JBU) (Canavalia ensiformis, UniProt P07374).
T2 construct: Urease from jack bean (Canavalia ensiformis, JBU); purchased Sigma-Aldrich (St Louis, MO, USA) type III (catalogue number not given)
Description: biochemical. It counts as biochemical. Conditions: read-out: Residual urease activity (percent of control), Fig 5B JBU, thiols 1.25 mM, Pal 0.5 mM, 20+20 min. The method, then:
as §1

For assay [3], the target named is T1, H. pylori urease (HPU). Description: biochemical. Conditions: read-out: Residual urease activity (percent of control), Fig 4A HPU, Pal 0.5 mM, thiols 1.25 mM, replicates. The method, then: (§2) For the protection with thiols-containing compounds, the mixture consisting of 0.25 mg/mL urease (HPU or JBU), 0.5 mM Pal (for both HPU and JBU) and 1.25 mM thiols (DTT, GSH and L-cys) was incubated for 5, 10, 20, and 40 min at 37°C, respectively. The control sample instead of the protectors contained a proper volume of respective buffer.

The target of assay [4] is T2, jack bean urease (JBU). As to the kind of experiment: biochemical. Conditions: read-out: Residual urease activity (percent of control), Fig 4B JBU, Pal 0.5 mM, thiols 1.25 mM, replicates. The method, then: as §2
In assay [5] the target is T1, H. pylori urease (HPU). As to the kind of experiment: Urease inhibition test (modified Berthelot method). The class given is biochemical. Conditions: HPU 0.25 mg/mL; 20 min preincubation 37°C, pH 7.5; read-out: IC50. The procedure: (§3) HPU was prepared as previously described. The standard urease assay mixture included 150 mM urea in 20 mM HEPES buffer (pH 7.5). After addition of small aliquots of enzyme-containing solution of urease, the assay ran for 20 min. The enzymatic activity was evaluated spectrophotometrically by detecting the ammonia concentration at 595 nm according to the modified Berthelot (phenol-hypochlorite) method. Urease activity was estimated with JBU as a standard, the specific activity of HPU was determined to be 17.0 U/mg. One unit of urease activity was defined as 1 μmol of ammonia released per min at 25°C. The amount of protein was determined by commercial Bradford Protein Assay Kit with BSA as a standard. The amount of ammonia released was decided from a standard curve. The activity of uninhibited urease was defined as the control activity of 100%.
(§4) Reaction mixtures comprising 0.25 mg/mL HPU or JBU and different concentrations of Pal or AHA at the volume ratio of 1:1, were incubated at 37°C in 20 mM HEPES buffer (pH 7.5) in the absence of urea. The reactions were initiated by mixing the urease and the inhibitor. The preincubation mixture was withdrawn at 20 min and immediately transferred into the standard assay mixtures for urease residual activity determination. Inhibition rate (%) was calculated following the formula: I % = (1-activity with inhibitors/activity without inhibitors) × 100%. The IC50 was expressed as the concentration of inhibitor that decreased urease activity by 50% and calculated by plotting the percent of inhibition. The experiments were triply performed.

The target in assay [6] is T2, jack bean urease (JBU). Description: Urease inhibition test (modified Berthelot method). It counts as biochemical. Conditions: JBU 0.25 mg/mL; 20 min preincubation 37°C, pH 7.5; read-out: IC50. The procedure:
as §3, §4

Read-outs that look alike come from different tables or passages of the source.

T2 sequence (P07374 whole entry, looked up): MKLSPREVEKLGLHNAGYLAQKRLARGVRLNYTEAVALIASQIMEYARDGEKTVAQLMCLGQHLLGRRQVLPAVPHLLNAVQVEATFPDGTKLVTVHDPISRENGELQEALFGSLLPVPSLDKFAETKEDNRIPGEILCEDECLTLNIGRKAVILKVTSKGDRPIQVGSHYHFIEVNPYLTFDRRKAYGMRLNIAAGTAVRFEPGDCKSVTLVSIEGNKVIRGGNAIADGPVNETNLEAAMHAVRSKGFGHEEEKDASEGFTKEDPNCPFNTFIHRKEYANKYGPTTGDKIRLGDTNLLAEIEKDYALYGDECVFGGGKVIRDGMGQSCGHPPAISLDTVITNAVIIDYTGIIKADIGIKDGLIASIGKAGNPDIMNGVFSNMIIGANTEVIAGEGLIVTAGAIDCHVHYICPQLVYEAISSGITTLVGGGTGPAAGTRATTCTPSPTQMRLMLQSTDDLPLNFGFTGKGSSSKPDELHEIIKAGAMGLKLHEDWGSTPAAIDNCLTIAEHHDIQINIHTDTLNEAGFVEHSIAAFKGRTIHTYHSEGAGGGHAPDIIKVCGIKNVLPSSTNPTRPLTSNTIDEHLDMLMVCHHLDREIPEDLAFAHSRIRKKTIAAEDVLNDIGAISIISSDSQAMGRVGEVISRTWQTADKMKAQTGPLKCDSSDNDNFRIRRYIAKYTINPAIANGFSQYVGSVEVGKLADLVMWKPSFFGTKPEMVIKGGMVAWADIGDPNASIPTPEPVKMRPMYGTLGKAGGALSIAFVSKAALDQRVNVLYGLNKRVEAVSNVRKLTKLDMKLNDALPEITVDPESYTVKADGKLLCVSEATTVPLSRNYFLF
T1 sequence (P14916 whole entry): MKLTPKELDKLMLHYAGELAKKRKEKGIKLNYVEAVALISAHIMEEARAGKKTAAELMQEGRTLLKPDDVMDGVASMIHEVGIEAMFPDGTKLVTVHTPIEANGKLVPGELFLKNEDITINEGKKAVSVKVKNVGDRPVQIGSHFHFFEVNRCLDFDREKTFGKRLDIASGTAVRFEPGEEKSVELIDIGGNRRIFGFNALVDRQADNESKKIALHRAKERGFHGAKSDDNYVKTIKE
T1 sequence (P69996 whole entry): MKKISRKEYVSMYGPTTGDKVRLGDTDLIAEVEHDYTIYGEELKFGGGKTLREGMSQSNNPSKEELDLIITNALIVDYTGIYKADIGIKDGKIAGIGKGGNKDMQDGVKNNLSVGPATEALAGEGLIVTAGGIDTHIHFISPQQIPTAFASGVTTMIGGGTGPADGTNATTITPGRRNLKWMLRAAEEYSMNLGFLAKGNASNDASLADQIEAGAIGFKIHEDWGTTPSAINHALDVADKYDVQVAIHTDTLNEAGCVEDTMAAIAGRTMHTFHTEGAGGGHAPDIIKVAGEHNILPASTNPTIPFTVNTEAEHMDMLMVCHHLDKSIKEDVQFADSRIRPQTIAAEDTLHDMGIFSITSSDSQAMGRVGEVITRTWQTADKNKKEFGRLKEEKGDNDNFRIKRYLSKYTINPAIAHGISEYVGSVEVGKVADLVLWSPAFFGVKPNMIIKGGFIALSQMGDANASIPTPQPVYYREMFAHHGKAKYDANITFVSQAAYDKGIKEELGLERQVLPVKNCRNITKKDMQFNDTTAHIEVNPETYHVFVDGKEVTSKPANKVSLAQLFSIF

In the case of `N[C@@H](CS)C(=O)O` [L-Cys, L-cysteine], the activity at 1250 µM on H. pylori urease (HPU) [1] (order (Protector+Pal)+urease) is 83.2%; at H. pylori urease (HPU) [1] (order (urease+Pal)+Protector), 82.4%; at H. pylori urease (HPU) [1] (order (urease+Protector)+Pal) it was 105%; on jack bean urease (JBU) [2] (order (Protector+Pal)+urease), 147%; on jack bean urease (JBU) [2] (order (urease+Protector)+Pal) it was 146%; on H. pylori urease (HPU) [3] (5 min, 5 min incubation), 118%. Further, the activity at 1250 µM at H. pylori urease (HPU) [3] (10 min, 10 min incubation) came out at 107%; on H. pylori urease (HPU) [3] (20 min, 20 min incubation), 109%; on H. pylori urease (HPU) [3] (40 min, 40 min incubation) it was 112%; on jack bean urease (JBU) [4] (5 min, 5 min incubation), 102%; on jack bean urease (JBU) [4] (10 min, 10 min incubation) it was 109%; on jack bean urease (JBU) [4] (20 min, 20 min incubation), 117%. Also, on jack bean urease (JBU) [4] (40 min, 40 min incubation), the activity at 1250 µM was found to be 150%.

A word on the IC50: it is the concentration needed to halve the response being measured. Regarding `CC(=O)NO` [AHA, Acetohydroxamic acid], the results for the IC50 on H. pylori urease (HPU) [5] and at jack bean urease (JBU) [6] were 70 ± 10 µM and 20 µM, respectively.

`N[C@@H](CCC(=O)N[C@@H](CS)C(=O)NCC(=O)O)C(=O)O` [GSH, glutathione]: the activity at 1250 µM on H. pylori urease (HPU) [1] (order (Protector+Pal)+urease) turned out to be 90.2%; on H. pylori urease (HPU) [1] (order (urease+Pal)+Protector) it was 85.2%; on H. pylori urease (HPU) [1] (order (urease+Protector)+Pal) it was 86.2%; on jack bean urease (JBU) [2] (order (Protector+Pal)+urease), 139%; at jack bean urease (JBU) [2] (order (urease+Pal)+Protector), 140%; at H. pylori urease (HPU) [3] (5 min, 5 min incubation), 72.8%. Also, the activity at 1250 µM on H. pylori urease (HPU) [3] (10 min, 10 min incubation) came to 90.4%; on H. pylori urease (HPU) [3] (20 min, 20 min incubation), 94.7%; on H. pylori urease (HPU) [3] (40 min, 40 min incubation), 97.5%; on jack bean urease (JBU) [4] (5 min, 5 min incubation), 129%; on jack bean urease (JBU) [4] (10 min, 10 min incubation), 130%; on jack bean urease (JBU) [4] (20 min, 20 min incubation) it was 129%. Further, at jack bean urease (JBU) [4] (40 min, 40 min incubation), the activity at 1250 µM amounted to 146%.
